Test systems include TK-10 renal; OVCAR-3 ovarian; OVCAR-8 ovarian; UACC-62 melanoma; NCI-H460 lung; OVCAR-4 ovarian; T-47D breast; PC-3 prostate; MDA-MB-231 breast; K-562 leukemia.
Test in all cases: growth of human tumour cells (NCI), 48 h

Among the data in PubChem BioAssay (NCI) are GI50 and TGI values, retold here.

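Assay format: 96-well plates, 48-hour exposure. GI50 marks 50% less growth. The concentration for full growth arrest is given as TGI.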

For the molecule `CCN(CC)CCCC(C)Nc1ccnc2cc(Cl)c(SCc3ccccc3)cc12` (stereo not given), the GI50 in the assay on TK-10 renal is 512 nM; in the assay with OVCAR-3 ovarian, 2310 nM; in the assay on OVCAR-8 ovarian, 1730 nM; in the assay with UACC-62 melanoma, 214 nM; in the assay on NCI-H460 lung, 1770 nM; in the assay with OVCAR-4 ovarian it was 1530 nM. In addition, the GI50 is 1980 nM with T-47D breast, 1720 nM with PC-3 prostate, 1270 nM with MDA-MB-231 breast and 266 nM with K-562 leukemia. Also, the TGI was 1600 nM with TK-10 renal; 8070 nM in the assay on OVCAR-3 ovarian; 3440 nM in the assay with OVCAR-8 ovarian; 585 nM in the assay on UACC-62 melanoma; 4540 nM with NCI-H460 lung; 4050 nM in the assay with OVCAR-4 ovarian. For the same molecule, the TGI is 4770 nM in the assay on T-47D breast, 3960 nM with PC-3 prostate, 2900 nM with MDA-MB-231 breast and 702 nM with K-562 leukemia.
As for `CN(C)CCOc1cccc(NC2=C(Cl)C(=O)C(Nc3cccc(OCCN(C)C)c3)=C(Cl)C2=O)c1`, the GI50 was 234 nM in the assay with TK-10 renal; 180 nM in the assay on OVCAR-3 ovarian; 1130 nM in the assay with OVCAR-8 ovarian; 1200 nM with UACC-62 melanoma; 1570 nM in the assay on NCI-H460 lung; 170 nM with OVCAR-4 ovarian. Further, the GI50 with T-47D breast was 189 nM; in the assay with PC-3 prostate, 1520 nM; with MDA-MB-231 breast, 540 nM; with K-562 leukemia, 162 nM. The TGI with TK-10 renal is 513 nM; in the assay on OVCAR-3 ovarian, 334 nM; in the assay on OVCAR-8 ovarian, 2910 nM; with UACC-62 melanoma it was 2570 nM; with NCI-H460 lung, 3270 nM; in the assay with OVCAR-4 ovarian, 329 nM. For the same molecule, the TGI with T-47D breast is 453 nM; in the assay on PC-3 prostate, 3250 nM; in the assay with MDA-MB-231 breast, 1170 nM; with K-562 leukemia it was 608 nM.
On to `CSc1ccc2c(c1)C(=O)c1c-2n(CCCN=[N+]=[N-])c(=O)c2cc([N+](=O)[O-])ccc12`, for which the GI50 is above 100000 nM in the assay with TK-10 renal; 8870 nM in the assay with OVCAR-3 ovarian; 7970 nM in the assay on OVCAR-8 ovarian; 683 nM in the assay on UACC-62 melanoma; 322 nM in the assay on NCI-H460 lung; above 100000 nM with OVCAR-4 ovarian. Also, the GI50 is 4580 nM with T-47D breast, 5580 nM in the assay on PC-3 prostate, above 100000 nM with MDA-MB-231 breast and 1990 nM with K-562 leukemia. The TGI in the assay with TK-10 renal was above 100000 nM; in the assay with OVCAR-3 ovarian it was above 89500 nM; with OVCAR-8 ovarian, above 100000 nM; in the assay on UACC-62 melanoma it was above 88700 nM; with NCI-H460 lung it was above 100000 nM; in the assay on OVCAR-4 ovarian it was above 100000 nM. Besides, the TGI was above 100000 nM in the assay with T-47D breast, above 100000 nM in the assay with PC-3 prostate, above 100000 nM in the assay with MDA-MB-231 breast and above 40200 nM in the assay with K-562 leukemia.
